From ChEMBL document CHEMBL3407472, “Multi-parameter optimization of aza-follow-ups to BI 207524, a thumb pocket 1 HCV NS5B polymerase inhibitor. Part 2: Impact of lipophilicity on promiscuity and in vivo toxicity” (Bioorg Med Chem Lett, 2015)

Assays:
Hepatitis C virus = test: Antiviral activity against Hepatitis C virus genotype 1b infected in human Huh cells assessed as inhibition of viral replication by RT-PCR-based replicon assay; assay type: functional, cell-based, Hepacivirus hominis
[1] = Lipophilicity, log D of the compound at pH 7.4; assay type: physicochemical; details: buffer

Structure (SMILES) | EC50 (Hepatitis C virus) [nM] | logD [1]
CCOc1nc(NC(=O)C2(NC(=O)c3ccc4c(C5CCCC5)c(-c5ccc(F)cn5)n(C)c4c3)CCCC2)ccc1/C=C/C(=O)O | 4 | > 5.3
COc1nc(NC(=O)C2(NC(=O)c3ccc4c(C5CCCC5)c(-c5ccccn5)n(C)c4c3)CCC2)cnc1/C=C/C(=O)O | 43 | 
CCOc1nc(NC(=O)C2(NC(=O)c3ccc4c(C5CCCC5)c(-c5cnccn5)n(C)c4c3)CCCC2)ccc1/C=C/C(=O)O | 5 | 4.1
COc1nc(NC(=O)C2(NC(=O)c3ccc4c(C5CCCC5)c(-c5cncnc5)n(C)c4c3)CCC2)cnc1/C=C/C(=O)O | 185 | 
CCOc1nc(NC(=O)C(C)(C)NC(=O)c2ccc3c(C4CCCC4)c(-c4cnccn4)n(C)c3c2)ccc1/C=C/C(=O)O | 7 | 2.9
COc1nc(NC(=O)C(C)(C)NC(=O)c2ccc3c(c2)c(C)c(-c2ccc(F)cn2)n3C2CCCCC2)cnc1/C=C/C(=O)O | 27 | 
COc1nc(NC(=O)C(C)(C)NC(=O)c2ccc3c(C4CCCC4)c(-c4ncc(Br)cn4)n(C)c3c2)cnc1/C=C/C(=O)O | 23 | 2.6
COc1nc(NC(=O)C(C)(C)NC(=O)c2ccc3c(C4CCCC4)c(-c4ccccn4)n(C)c3c2)ccc1/C=C/C(=O)O | 21 | 
CCOc1nc(NC(=O)C2(NC(=O)c3ccc4c(c3)c(C)c(-c3ccc(F)cn3)n4C3CCCCC3)CCCC2)cnc1/C=C/C(=O)O | 6 | 4.2
COc1nc(NC(=O)C(C)(C)NC(=O)c2ccc3c(C4CCCC4)c(-c4ccc(Cl)cn4)n(C)c3c2)cnc1/C=C/C(=O)O | 44 | 
COc1nc(NC(=O)C2(NC(=O)c3ccc4c(C5CCCC5)c(-c5cnccn5)n(C)c4c3)CCC2)cnc1/C=C/C(=O)O | 49 | 
COc1nc(NC(=O)C2(NC(=O)c3ccc4c(C5CCCC5)c(-c5ccc(F)cn5)n(C)c4c3)CCCC2)cnc1/C=C/C(=O)O | 30 | 
COc1nc(NC(=O)C2(NC(=O)c3ccc4c(C5CCCC5)c(-c5ccc(Cl)cn5)n(C)c4c3)CCCC2)cnc1/C=C/C(=O)O | 40 | 
COc1nc(NC(=O)C(C)(C)NC(=O)c2ccc3c(C4CCCC4)c(-c4cncnc4)n(C)c3c2)cnc1/C=C/C(=O)O | 330 | 
COc1nc(NC(=O)C(C)(C)NC(=O)c2ccc3c(C4CCCC4)c(-c4cnccn4)n(C)c3c2)cnc1/C=C/C(=O)O | 55 | 
COc1nc(NC(=O)C2(NC(=O)c3ccc4c(C5CCCC5)c(-c5ccccn5)n(C)c4c3)CCCC2)cnc1/C=C/C(=O)O | 31 | 
CCOc1nc(NC(=O)C2(NC(=O)c3ccc4c(C5CCCC5)c(-c5ccc(Cl)cn5)n(C)c4c3)CCCC2)cnc1/C=C/C(=O)O | 13 | > 4.4
CCOc1nc(NC(=O)C2(NC(=O)c3ccc4c(C5CCCC5)c(-c5ncc(Br)cn5)n(C)c4c3)CCCC2)cnc1/C=C/C(=O)O | 9 | > 4.2
CCOc1nc(NC(=O)C2(NC(=O)c3ccc4c(C5CCCC5)c(-c5cncnc5)n(C)c4c3)CCC2)cnc1/C=C/C(=O)O | 89 | 
COc1nc(NC(=O)C(C)(C)NC(=O)c2ccc3c(C4CCCC4)c(-c4cnccn4)n(C)c3c2)ccc1/C=C/C(=O)O | 16 | 2.4
COc1nc(NC(=O)C2(NC(=O)c3ccc4c(C5CCCC5)c(-c5ncc(Br)cn5)n(C)c4c3)CCC2)cnc1/C=C/C(=O)O | 116 | 
CCOc1nc(NC(=O)C(C)(C)NC(=O)c2ccc3c(C4CCCC4)c(-c4cncnc4)n(C)c3c2)cnc1/C=C/C(=O)O | 82 | 2.2
COc1nc(NC(=O)C2(NC(=O)c3ccc4c(C5CCCC5)c(-c5ccc(F)cn5)n(C)c4c3)CCC2)cnc1/C=C/C(=O)O | 37 | 
COc1nc(NC(=O)C2(NC(=O)c3ccc4c(C5CCCC5)c(-c5ncc(Br)cn5)n(C)c4c3)CCC2)ccc1/C=C/C(=O)O | 9 | 3.9
COc1nc(NC(=O)C2(NC(=O)c3ccc4c(C5CCCC5)c(-c5cncnc5)n(C)c4c3)CCCC2)cnc1/C=C/C(=O)O | 575 | 
CCOc1nc(NC(=O)C2(NC(=O)c3ccc4c(C5CCCC5)c(-c5ccc(Cl)cn5)n(C)c4c3)CCCC2)ccc1/C=C/C(=O)O | 4 | > 5.5
COc1nc(NC(=O)C2(NC(=O)c3ccc4c(C5CCCC5)c(-c5cnccn5)n(C)c4c3)CCCC2)cnc1/C=C/C(=O)O | 390 | 
CCOc1nc(NC(=O)C2(NC(=O)c3ccc4c(C5CCCC5)c(-c5ncc(Br)cn5)n(C)c4c3)CCC2)cnc1/C=C/C(=O)O | 30 | 4.2
COc1nc(NC(=O)C2(NC(=O)c3ccc4c(C5CCCC5)c(-c5cncnc5)n(C)c4c3)CCC2)ccc1/C=C/C(=O)O | 50 | 
CCOc1nc(NC(=O)C2(NC(=O)c3ccc4c(C5CCCC5)c(-c5ncc(Cl)cn5)n(C)c4c3)CCC2)cnc1/C=C/C(=O)O |  | 3.5

The remaining molecules from weak to strong by EC50 (Hepatitis C virus), led by results:

EC50 (Hepatitis C virus) [nM] | logD [1] | Structure (SMILES)
56 |  | COc1nc(NC(=O)C2(NC(=O)c3ccc4c(C5CCCC5)c(-c5ccc(Cl)cn5)n(C)c4c3)CCC2)cnc1/C=C/C(=O)O
53 |  | CCOc1nc(NC(=O)C2(NC(=O)c3ccc4c(C5CCCC5)c(-c5ccc(Cl)cn5)n(C)c4c3)CCC2)cnc1/C=C/C(=O)O
50 |  | COc1nc(NC(=O)C(C)(C)NC(=O)c2ccc3c(C4CCCC4)c(-c4ccccn4)n(C)c3c2)cnc1/C=C/C(=O)O
38 |  | COc1nc(NC(=O)C2(NC(=O)c3ccc4c(C5CCCC5)c(-c5ncc(Br)cn5)n(C)c4c3)CCCC2)cnc1/C=C/C(=O)O
36 | 2.4 | CCOc1nc(NC(=O)C(C)(C)NC(=O)c2ccc3c(C4CCCC4)c(-c4cnccn4)n(C)c3c2)cnc1/C=C/C(=O)O
32 |  | COc1nc(NC(=O)C2(NC(=O)c3ccc4c(C5CCCC5)c(-c5ncc(Cl)cn5)n(C)c4c3)CCC2)cnc1/C=C/C(=O)O
29 |  | COc1nc(NC(=O)C2(NC(=O)c3ccc4c(C5CCCC5)c(-c5ncc(Cl)cn5)n(C)c4c3)CCCC2)cnc1/C=C/C(=O)O
26 |  | COc1nc(NC(=O)C(C)(C)NC(=O)c2ccc3c(C4CCCC4)c(-c4ccc(F)cn4)n(C)c3c2)cnc1/C=C/C(=O)O
22 | 2.9 | CCOc1nc(NC(=O)C2(NC(=O)c3ccc4c(C5CCCC5)c(-c5cnccn5)n(C)c4c3)CCC2)cnc1/C=C/C(=O)O
18 |  | CCOc1nc(NC(=O)C(C)(C)NC(=O)c2ccc3c(C4CCCC4)c(-c4ccc(F)cn4)n(C)c3c2)cnc1/C=C/C(=O)O
18 | 2.8 | CCOc1nc(NC(=O)C2(NC(=O)c3ccc4c(C5CCCC5)c(-c5cncnc5)n(C)c4c3)CCCC2)cnc1/C=C/C(=O)O
16 | 2.6 | CCOc1nc(NC(=O)C2(NC(=O)c3ccc4c(C5CCCC5)c(-c5ccccn5)n(C)c4c3)CCCC2)cnc1/C=C/C(=O)O
5 | > 6.2 | CCOc1nc(NC(=O)C2(NC(=O)c3ccc4c(c3)c(C)c(-c3ccc(F)cn3)n4C3CCCCC3)CCCC2)ccc1/C=C/C(=O)O
5 | > 6.6 | CCOc1nc(NC(=O)C2(NC(=O)c3ccc4c(C5CCCC5)c(-c5ncc(Br)cn5)n(C)c4c3)CCCC2)ccc1/C=C/C(=O)O
4 |  | CCOc1nc(NC(=O)C2(NC(=O)c3ccc4c(C5CCCC5)c(-c5ccccn5)n(C)c4c3)CCCC2)ccc1/C=C/C(=O)O
3 |  | COc1nc(NC(=O)C(C)(C)NC(=O)c2ccc3c(c2)c(C)c(-c2ccc(F)cn2)n3C2CCCCC2)ccc1/C=C/C(=O)O
2 | 3.5 | CCOc1nc(NC(=O)C(C)(C)NC(=O)c2ccc3c(C4CCCC4)c(-c4ccccn4)n(C)c3c2)ccc1/C=C/C(=O)O
